# Legend:
# Details in all cases: Compound concentration 10 µM
# [1] = biological target: Sigma non-opioid intracellular receptor 1 (Homo sapiens) (UniProt Q99720)
# Description: PDSP Primary Binding target: SIGMAR1 - Compounds are tested at 10 uM concentration, plate are incubated at room temperature in the dark for 90 minutes. Reaction are stopped by vacuum filtration onto 0.3% polyethyleneimine soaked filter mats using Filtermate harvester. Scintilation cocktail is then melted onto microwave-dried filters on a hot plate and the radio activity is counted in Microbia counter.
# [2] = biological target: Muscarinic acetylcholine receptor M3 (Homo sapiens) (UniProt P20309)
# Description: PDSP Primary Binding target: CHRM3 - Compounds are tested at 10 uM concentration, plate are incubated at room temperature in the dark for 90 minutes. Reaction are stopped by vacuum filtration onto 0.3% polyethyleneimine soaked filter mats using Filtermate harvester. Scintilation cocktail is then melted onto microwave-dried filters on a hot plate and the radio activity is counted in Microbia counter.
# [3] = biological target: Sodium-dependent serotonin transporter (Homo sapiens) (UniProt P31645)
# Description: PDSP Primary Binding target: SLC6A4 - Compounds are tested at 10 uM concentration, plate are incubated at room temperature in the dark for 90 minutes. Reaction are stopped by vacuum filtration onto 0.3% polyethyleneimine soaked filter mats using Filtermate harvester. Scintilation cocktail is then melted onto microwave-dried filters on a hot plate and the radio activity is counted in Microbia counter.
# [4] = biological target: 5-hydroxytryptamine receptor 7 (Homo sapiens) (UniProt P34969)
# Description: PDSP Primary Binding target: HTR7 - Compounds are tested at 10 uM concentration, plate are incubated at room temperature in the dark for 90 minutes. Reaction are stopped by vacuum filtration onto 0.3% polyethyleneimine soaked filter mats using Filtermate harvester. Scintilation cocktail is then melted onto microwave-dried filters on a hot plate and the radio activity is counted in Microbia counter.
# [5] = biological target: T1, Muscarinic acetylcholine receptor M2 (Homo sapiens) (UniProt P08172)
# T1 sequence (whole entry): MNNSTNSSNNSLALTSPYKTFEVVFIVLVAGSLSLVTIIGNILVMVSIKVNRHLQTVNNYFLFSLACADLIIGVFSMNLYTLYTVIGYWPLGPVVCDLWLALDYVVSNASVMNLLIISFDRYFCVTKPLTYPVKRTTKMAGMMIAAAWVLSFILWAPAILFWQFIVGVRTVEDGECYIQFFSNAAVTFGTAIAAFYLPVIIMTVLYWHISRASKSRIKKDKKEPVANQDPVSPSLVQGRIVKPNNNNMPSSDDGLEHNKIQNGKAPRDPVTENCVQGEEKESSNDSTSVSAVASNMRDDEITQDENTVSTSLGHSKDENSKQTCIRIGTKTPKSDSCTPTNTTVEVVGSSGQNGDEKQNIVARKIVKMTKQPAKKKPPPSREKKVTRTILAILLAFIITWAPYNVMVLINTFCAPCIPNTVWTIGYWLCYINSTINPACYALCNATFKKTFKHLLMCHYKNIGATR
# Description: PDSP Primary Binding target: CHRM2 - Compounds are tested at 10 uM concentration, plate are incubated at room temperature in the dark for 90 minutes. Reaction are stopped by vacuum filtration onto 0.3% polyethyleneimine soaked filter mats using Filtermate harvester. Scintilation cocktail is then melted onto microwave-dried filters on a hot plate and the radio activity is counted in Microbia counter.
# [6] = biological target: 5-hydroxytryptamine receptor 2A (Homo sapiens) (UniProt P28223)
# Description: PDSP Primary Binding target: HTR2A - Compounds are tested at 10 uM concentration, plate are incubated at room temperature in the dark for 90 minutes. Reaction are stopped by vacuum filtration onto 0.3% polyethyleneimine soaked filter mats using Filtermate harvester. Scintilation cocktail is then melted onto microwave-dried filters on a hot plate and the radio activity is counted in Microbia counter.
# [7] = biological target: Sodium-dependent noradrenaline transporter (Homo sapiens) (UniProt P23975)
# Description: PDSP Primary Binding target: SLC6A2 - Compounds are tested at 10 uM concentration, plate are incubated at room temperature in the dark for 90 minutes. Reaction are stopped by vacuum filtration onto 0.3% polyethyleneimine soaked filter mats using Filtermate harvester. Scintilation cocktail is then melted onto microwave-dried filters on a hot plate and the radio activity is counted in Microbia counter.
# [8] = biological target: T2, 5-hydroxytryptamine receptor 3A (Homo sapiens) (UniProt P46098)
# T2 sequence (whole entry): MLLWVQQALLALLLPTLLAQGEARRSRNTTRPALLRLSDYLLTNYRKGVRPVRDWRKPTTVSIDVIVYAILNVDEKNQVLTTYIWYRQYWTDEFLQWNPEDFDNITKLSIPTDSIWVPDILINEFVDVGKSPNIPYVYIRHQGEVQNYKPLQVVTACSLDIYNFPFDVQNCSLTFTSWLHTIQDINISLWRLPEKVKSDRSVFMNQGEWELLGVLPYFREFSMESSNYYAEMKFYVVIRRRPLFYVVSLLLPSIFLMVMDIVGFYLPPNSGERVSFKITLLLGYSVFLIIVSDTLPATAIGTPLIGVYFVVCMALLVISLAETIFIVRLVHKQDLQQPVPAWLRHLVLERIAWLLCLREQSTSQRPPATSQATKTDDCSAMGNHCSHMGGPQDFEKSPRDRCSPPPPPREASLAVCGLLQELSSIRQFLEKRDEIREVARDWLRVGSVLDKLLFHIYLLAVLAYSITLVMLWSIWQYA
# Description: PDSP Primary Binding target: HTR3A - Compounds are tested at 10 uM concentration, plate are incubated at room temperature in the dark for 90 minutes. Reaction are stopped by vacuum filtration onto 0.3% polyethyleneimine soaked filter mats using Filtermate harvester. Scintilation cocktail is then melted onto microwave-dried filters on a hot plate and the radio activity is counted in Microbia counter.
# [9] = biological target: Delta-type opioid receptor (Homo sapiens) (UniProt P41143)
# Description: PDSP Primary Binding target: OPRD1 - Compounds are tested at 10 uM concentration, plate are incubated at room temperature in the dark for 90 minutes. Reaction are stopped by vacuum filtration onto 0.3% polyethyleneimine soaked filter mats using Filtermate harvester. Scintilation cocktail is then melted onto microwave-dried filters on a hot plate and the radio activity is counted in Microbia counter.
# [10] = biological target: D(3) dopamine receptor (Homo sapiens) (UniProt P35462)
# Description: PDSP Primary Binding target: DRD3 - Compounds are tested at 10 uM concentration, plate are incubated at room temperature in the dark for 90 minutes. Reaction are stopped by vacuum filtration onto 0.3% polyethyleneimine soaked filter mats using Filtermate harvester. Scintilation cocktail is then melted onto microwave-dried filters on a hot plate and the radio activity is counted in Microbia counter.
# [11] = biological target: T3, Alpha-1B adrenergic receptor (Homo sapiens) (UniProt P35368)
# T3 sequence (whole entry): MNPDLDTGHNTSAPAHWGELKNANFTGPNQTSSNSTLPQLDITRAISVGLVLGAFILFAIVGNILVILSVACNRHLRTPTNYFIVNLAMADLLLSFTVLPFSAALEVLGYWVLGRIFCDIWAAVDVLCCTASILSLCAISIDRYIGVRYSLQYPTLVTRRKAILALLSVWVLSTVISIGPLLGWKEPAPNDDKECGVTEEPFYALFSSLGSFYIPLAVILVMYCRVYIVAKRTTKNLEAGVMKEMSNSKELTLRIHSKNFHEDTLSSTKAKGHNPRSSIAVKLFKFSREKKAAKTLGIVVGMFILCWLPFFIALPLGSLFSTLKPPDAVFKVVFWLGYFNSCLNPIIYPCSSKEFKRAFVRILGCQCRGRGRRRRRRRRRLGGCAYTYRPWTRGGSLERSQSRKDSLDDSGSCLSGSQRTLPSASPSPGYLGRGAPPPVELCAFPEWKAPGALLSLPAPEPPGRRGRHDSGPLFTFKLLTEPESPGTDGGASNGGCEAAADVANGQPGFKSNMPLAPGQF
# Description: PDSP Primary Binding target: ADRA1B - Compounds are tested at 10 uM concentration, plate are incubated at room temperature in the dark for 90 minutes. Reaction are stopped by vacuum filtration onto 0.3% polyethyleneimine soaked filter mats using Filtermate harvester. Scintilation cocktail is then melted onto microwave-dried filters on a hot plate and the radio activity is counted in Microbia counter.
# [12] = biological target: T4, 5-hydroxytryptamine receptor 2C (Homo sapiens) (UniProt P28335)
# T4 sequence (whole entry): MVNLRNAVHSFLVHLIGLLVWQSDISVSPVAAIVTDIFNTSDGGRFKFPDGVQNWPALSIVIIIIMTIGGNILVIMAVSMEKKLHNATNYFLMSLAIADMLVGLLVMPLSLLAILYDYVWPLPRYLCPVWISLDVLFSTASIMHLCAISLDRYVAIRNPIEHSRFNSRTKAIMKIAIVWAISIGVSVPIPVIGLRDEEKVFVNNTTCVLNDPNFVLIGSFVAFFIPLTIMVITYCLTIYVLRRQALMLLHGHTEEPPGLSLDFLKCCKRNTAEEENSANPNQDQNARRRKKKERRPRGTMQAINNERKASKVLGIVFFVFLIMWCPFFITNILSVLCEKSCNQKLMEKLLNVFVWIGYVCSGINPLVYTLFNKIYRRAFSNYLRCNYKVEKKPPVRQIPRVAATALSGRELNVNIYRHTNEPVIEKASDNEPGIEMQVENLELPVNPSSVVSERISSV
# Description: PDSP Primary Binding target: HTR2C - Compounds are tested at 10 uM concentration, plate are incubated at room temperature in the dark for 90 minutes. Reaction are stopped by vacuum filtration onto 0.3% polyethyleneimine soaked filter mats using Filtermate harvester. Scintilation cocktail is then melted onto microwave-dried filters on a hot plate and the radio activity is counted in Microbia counter.
# [13] = biological target: T5, Muscarinic acetylcholine receptor M5 (Homo sapiens) (UniProt P08912)
# T5 sequence (whole entry): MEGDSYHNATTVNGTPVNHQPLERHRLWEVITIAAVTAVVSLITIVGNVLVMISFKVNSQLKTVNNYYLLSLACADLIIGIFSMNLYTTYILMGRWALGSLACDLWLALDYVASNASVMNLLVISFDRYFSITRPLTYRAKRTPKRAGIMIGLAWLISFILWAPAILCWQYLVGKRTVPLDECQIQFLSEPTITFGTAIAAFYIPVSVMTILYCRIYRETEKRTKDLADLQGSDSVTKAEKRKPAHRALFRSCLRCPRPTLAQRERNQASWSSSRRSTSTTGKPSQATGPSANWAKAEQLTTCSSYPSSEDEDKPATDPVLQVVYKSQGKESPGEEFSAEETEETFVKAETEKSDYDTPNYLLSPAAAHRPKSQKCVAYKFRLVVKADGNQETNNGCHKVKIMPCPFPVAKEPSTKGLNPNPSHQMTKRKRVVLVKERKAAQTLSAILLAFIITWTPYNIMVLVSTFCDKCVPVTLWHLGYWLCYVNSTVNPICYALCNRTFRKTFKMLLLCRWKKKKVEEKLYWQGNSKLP
# Description: PDSP Primary Binding target: CHRM5 - Compounds are tested at 10 uM concentration, plate are incubated at room temperature in the dark for 90 minutes. Reaction are stopped by vacuum filtration onto 0.3% polyethyleneimine soaked filter mats using Filtermate harvester. Scintilation cocktail is then melted onto microwave-dried filters on a hot plate and the radio activity is counted in Microbia counter.
# Sequence of Sigma non-opioid intracellular receptor 1 (Homo sapiens) (Q99720 whole entry): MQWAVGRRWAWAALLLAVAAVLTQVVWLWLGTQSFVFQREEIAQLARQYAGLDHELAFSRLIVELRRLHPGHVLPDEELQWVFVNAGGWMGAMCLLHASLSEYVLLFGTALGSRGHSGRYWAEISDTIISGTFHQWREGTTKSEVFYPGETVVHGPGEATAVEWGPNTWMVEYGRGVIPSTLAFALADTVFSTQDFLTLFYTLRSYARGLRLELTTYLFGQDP
# Sequence of D(3) dopamine receptor (Homo sapiens) (P35462 whole entry): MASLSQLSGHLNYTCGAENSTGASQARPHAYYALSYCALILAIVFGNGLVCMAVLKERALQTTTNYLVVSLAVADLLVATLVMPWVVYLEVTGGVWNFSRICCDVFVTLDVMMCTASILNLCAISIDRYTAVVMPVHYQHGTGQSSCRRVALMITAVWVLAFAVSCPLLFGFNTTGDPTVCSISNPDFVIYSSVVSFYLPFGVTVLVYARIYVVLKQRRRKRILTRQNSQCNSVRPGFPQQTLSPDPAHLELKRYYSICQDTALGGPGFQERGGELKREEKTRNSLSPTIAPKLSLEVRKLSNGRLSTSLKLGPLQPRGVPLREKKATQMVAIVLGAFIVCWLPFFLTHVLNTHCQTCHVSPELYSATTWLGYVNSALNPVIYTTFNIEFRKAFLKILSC
# Sequence of 5-hydroxytryptamine receptor 2A (Homo sapiens) (P28223 whole entry): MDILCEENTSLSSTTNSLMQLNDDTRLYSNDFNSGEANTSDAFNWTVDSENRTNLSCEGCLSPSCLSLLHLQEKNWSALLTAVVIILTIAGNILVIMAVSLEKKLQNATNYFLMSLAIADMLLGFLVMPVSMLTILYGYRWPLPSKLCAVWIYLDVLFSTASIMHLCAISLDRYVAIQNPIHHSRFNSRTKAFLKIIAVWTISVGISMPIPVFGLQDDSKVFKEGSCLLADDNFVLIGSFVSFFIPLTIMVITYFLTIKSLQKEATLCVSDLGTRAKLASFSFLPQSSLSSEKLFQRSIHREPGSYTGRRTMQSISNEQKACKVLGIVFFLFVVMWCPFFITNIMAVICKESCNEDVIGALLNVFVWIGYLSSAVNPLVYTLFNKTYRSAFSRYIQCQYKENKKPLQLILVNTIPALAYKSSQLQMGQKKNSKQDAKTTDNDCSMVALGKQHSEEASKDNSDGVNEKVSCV
# Sequence of Muscarinic acetylcholine receptor M3 (Homo sapiens) (P20309 whole entry, looked up): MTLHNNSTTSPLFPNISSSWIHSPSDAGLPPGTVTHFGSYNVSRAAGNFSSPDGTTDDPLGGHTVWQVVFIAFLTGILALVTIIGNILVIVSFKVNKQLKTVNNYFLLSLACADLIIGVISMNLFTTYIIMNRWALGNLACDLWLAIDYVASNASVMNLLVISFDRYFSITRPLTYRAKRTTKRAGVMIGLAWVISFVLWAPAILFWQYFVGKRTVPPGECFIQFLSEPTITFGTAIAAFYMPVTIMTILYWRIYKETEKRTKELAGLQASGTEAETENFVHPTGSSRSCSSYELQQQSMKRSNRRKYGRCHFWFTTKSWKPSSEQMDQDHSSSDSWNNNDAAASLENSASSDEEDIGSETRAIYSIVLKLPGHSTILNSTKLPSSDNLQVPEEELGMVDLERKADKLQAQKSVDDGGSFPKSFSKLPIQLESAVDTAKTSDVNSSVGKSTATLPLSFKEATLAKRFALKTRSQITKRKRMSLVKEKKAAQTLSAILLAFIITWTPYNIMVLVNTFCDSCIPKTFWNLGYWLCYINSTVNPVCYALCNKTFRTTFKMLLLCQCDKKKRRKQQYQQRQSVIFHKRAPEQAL
# Sequence of Sodium-dependent serotonin transporter (Homo sapiens) (P31645 whole entry, looked up): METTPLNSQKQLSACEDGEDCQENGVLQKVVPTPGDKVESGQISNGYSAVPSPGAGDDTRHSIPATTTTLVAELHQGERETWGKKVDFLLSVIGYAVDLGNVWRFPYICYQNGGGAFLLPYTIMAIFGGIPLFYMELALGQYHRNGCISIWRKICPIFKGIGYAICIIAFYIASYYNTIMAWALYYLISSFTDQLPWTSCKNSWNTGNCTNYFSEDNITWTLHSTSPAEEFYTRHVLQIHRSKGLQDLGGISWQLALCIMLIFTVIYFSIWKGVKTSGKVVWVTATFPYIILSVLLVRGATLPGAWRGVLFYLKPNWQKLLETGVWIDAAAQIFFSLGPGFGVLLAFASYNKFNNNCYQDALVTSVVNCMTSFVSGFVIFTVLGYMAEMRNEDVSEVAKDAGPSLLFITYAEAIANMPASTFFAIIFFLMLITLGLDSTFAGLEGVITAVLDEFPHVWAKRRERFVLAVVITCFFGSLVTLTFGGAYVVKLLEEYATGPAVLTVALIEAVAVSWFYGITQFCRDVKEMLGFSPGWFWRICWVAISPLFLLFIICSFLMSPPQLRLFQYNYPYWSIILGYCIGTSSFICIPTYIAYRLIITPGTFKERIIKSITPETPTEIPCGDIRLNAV
# Sequence of Sodium-dependent noradrenaline transporter (Homo sapiens) (P23975 whole entry): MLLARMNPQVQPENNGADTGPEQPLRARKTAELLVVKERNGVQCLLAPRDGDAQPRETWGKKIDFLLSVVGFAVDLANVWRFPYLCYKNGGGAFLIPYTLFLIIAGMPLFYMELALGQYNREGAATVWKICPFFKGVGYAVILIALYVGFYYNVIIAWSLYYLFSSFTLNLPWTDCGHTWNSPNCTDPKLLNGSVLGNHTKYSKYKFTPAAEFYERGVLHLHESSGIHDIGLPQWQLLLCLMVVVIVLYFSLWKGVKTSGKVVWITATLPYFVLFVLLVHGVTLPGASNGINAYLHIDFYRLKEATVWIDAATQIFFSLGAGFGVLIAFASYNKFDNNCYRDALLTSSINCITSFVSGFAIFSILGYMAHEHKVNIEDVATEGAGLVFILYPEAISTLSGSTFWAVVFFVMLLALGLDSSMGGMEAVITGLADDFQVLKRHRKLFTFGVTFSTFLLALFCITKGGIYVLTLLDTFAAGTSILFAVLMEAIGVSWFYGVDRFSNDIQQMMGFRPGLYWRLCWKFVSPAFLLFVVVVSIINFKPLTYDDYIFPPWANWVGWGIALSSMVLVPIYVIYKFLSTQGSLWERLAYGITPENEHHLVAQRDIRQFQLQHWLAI
# Sequence of Delta-type opioid receptor (Homo sapiens) (P41143 whole entry): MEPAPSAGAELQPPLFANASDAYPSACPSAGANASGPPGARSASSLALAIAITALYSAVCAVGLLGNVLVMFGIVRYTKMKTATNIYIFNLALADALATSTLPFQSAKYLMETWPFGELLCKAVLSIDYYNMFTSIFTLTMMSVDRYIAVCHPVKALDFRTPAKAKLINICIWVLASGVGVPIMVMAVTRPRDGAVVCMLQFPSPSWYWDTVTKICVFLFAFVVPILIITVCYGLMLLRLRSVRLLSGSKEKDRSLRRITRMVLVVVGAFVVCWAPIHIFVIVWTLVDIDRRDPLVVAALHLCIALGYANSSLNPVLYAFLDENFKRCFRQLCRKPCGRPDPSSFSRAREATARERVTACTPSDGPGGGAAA
# Sequence of 5-hydroxytryptamine receptor 7 (Homo sapiens) (P34969 whole entry): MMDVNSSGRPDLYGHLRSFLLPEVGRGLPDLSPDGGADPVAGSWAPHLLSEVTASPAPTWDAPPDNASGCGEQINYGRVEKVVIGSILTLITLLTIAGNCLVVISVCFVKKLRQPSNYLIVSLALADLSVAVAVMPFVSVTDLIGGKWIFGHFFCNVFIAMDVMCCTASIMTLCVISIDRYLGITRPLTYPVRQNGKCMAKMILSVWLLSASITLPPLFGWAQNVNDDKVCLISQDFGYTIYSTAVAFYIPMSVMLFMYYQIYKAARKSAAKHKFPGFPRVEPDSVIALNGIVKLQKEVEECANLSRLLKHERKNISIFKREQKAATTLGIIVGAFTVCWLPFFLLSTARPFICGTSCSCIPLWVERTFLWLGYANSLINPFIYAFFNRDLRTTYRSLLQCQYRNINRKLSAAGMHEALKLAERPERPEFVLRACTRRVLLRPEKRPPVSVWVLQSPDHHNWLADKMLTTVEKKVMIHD
SMILES,inhibition [1] [%],inhibition [2] [%],inhibition [3] [%],inhibition [4] [%],inhibition [5] [%],inhibition [6] [%],inhibition [7] [%],inhibition [8] [%],inhibition [9] [%],inhibition [10] [%],inhibition [11] [%],inhibition [12] [%],inhibition [13] [%]
Cc1nc(-c2ccc(-c3ccc(C(=O)N4CCc5cc6c(cc54)C4(CCN(C)CC4)CO6)cc3)c(C)c2)no1,75.2,73,41,25.5,44.5,67.6,69.2,43.9,-1.39,18.8,16.4,85.3,93.6
CCc1ccc(OCc2ccccc2C(=O)Nc2ccc3nc(C)cc(N)c3c2)cc1,58.1,11.1,36,46.5,11.9,83.4,87.4,24.7,-2.98,33.9,60.5,91.2,24
COc1ccc(NS(=O)(=O)c2sc3ccc(Cl)cc3c2C)cc1N1CCNCC1,83.6,3.19,37.7,38.3,17,37.4,61.7,73.3,29.8,91,65.1,51.7,16.8
COc1ccc(/C=C/CCCCOc2ccc(C(=O)c3cccc(C(=O)O)c3)cc2CCC(=O)O)cc1,11.6,-5.39,11.1,-2.54,7.46,33.6,-6.68,-4.61,46.8,56.1,-5.5,3.04,3.16
O=S1(=O)c2cccc3cccc(c23)N1CCCN1CCN(c2ccc(F)cc2)CC1,89.3,1.23,81.7,90.5,10.3,103,65.1,32.9,8.66,58.5,98.1,97.4,15.9
CCCCN1CCC(COC(=O)c2cc(Cl)c(N)c3c2OCCO3)CC1,105,14.6,14.6,40,5.99,62.2,42.9,72.4,0.6,58.8,-1.39,58.2,-7.37
Cc1ccccc1C(=O)Nc1ccc(C(=O)N2CCCC(O)c3cc(Cl)ccc32)c(C)c1 (centres undefined),28.2,17.3,10.7,8.44,2.3,12.9,20.8,-5.18,7.13,33,0.66,78.3,4.97
COC(=O)C1=C(C)NC(C)=C(C(=O)OCCCN2CCC(c3ccccc3)(c3ccccc3)CC2)[C@H]1c1cccc([N+](=O)[O-])c1,53.5,61.2,85.7,84.6,40.4,-1.08,86.5,43.2,94.1,81.8,98.6,58.1,89.6
Clc1cccc(COc2cncc(N3CCNCC3)n2)c1,96,82.1,2.44,87.1,33.3,99,20.2,97.8,-4.82,79.6,26.2,94.9,85.1
COc1cc(-n2cnc3cc(-c4ccc(Cl)cc4)sc3c2=O)ccc1OCCN1CCCC1,98.9,56.6,85.8,16.4,71.5,32.9,80.4,22.5,28.9,68.5,27.2,79.9,64.9
COc1cccc([C@@H](C)NCCCc2ccccc2Cl)c1,97.4,0.89,26.1,48.8,7,91.1,64.6,-2.74,11.8,85,15.5,91.8,9.55
Cc1nc2sccn2c(=O)c1CCN1CCC(=C(c2ccc(F)cc2)c2ccc(F)cc2)CC1,87.3,6.1,80.8,90.2,34.1,91,53.7,4.51,17.7,94.6,95.9,97.8,-0.02
NC[C@@H]1O[C@H](C23CC4CC(CC(C4)C2)C3)Cc2c1ccc(O)c2O,48.5,12.7,28.7,25.1,-9.03,3.87,58.5,39.6,3.82,81,56.9,31.6,29.6
